{"source": "patent US8747910B2", "about": "“Prediction of response to platinum-based therapy” (Atlas Antibodies AB, priority 2009, dated 2014)", "key": {"[1]": {"tested_on": "A2780 and A2780-Cp70 cells", "assay": "WST-1 cell viability assay after cisplatin treatment", "format": "cell-based, human", "details": "A2780-cp70 compared to parental A2780; cisplatin 0-100 μM, 48 h; FIG. 23", "experimental": "The effect of cisplatin on cell viability was determined by the WST-1 assay (Roche Applied Science) according to the manufacturer's recommendation. A2780 and A2780-Cp70 cells were seeded in 96-well plates at the density of 2500 cells/well in 100 μl appropriate medium a day before addition of cisplatin. The cells were treated with cisplatin (0-100 μM) for 48 h. Samples were made in triplicate. Ten microliters WST-1 solution was added per well and cells were incubated at 37° C. for 4 hr. The absorbance of each well was measured using a scanning multiwell spectrophotometer, ELISA reader at the wavelength of 450 nm and reference wavelength of 690 nm."}, "A2780 cells": {"tested_on": "A2780 cells", "assay": "Effect of RBM3 knockdown on cisplatin resistance (WST-1 viability)", "format": "cell-based, human", "details": "cisplatin sensitive cells with anti-RBM3 siRNA 50 nM vs non-exposed cells; cisplatin 1-100 μM; FIG. 24", "experimental": "The human ovarian cancer cell line A2780 and the cisplatin-resistant variant A2780 Cp70 were maintained in RPMI-1640 supplemented with glutamine, 10% fetal bovine serum and 1% penicillin/streptomycin in a humidified incubator of 5% CO2 at 37° C. Cisplatin (Sigma) was dissolved in 0.9% NaCl to a stock solution of 1 mg/ml and added to cell cultures to the final concentration (1-100 μM).\nTransfection with siRNA against RBM3 (Applied Biosystems, Carlsbad, Calif.) or control siRNA (Applied Biosystems) was performed with Lipofectamine 2000 (Invitrogen, Carlsbad, Calif.) with a final concentration of 50 nM siRNA.\nThe effect of cisplatin on cell viability was determined by the WST-1 assay as described in Examples, section 12."}, "[2]": {"tested_on": "epithelial ovarian cancer", "assay": "Gene expression analysis of ovarian cancer, recurrence free survival", "format": "in vivo, human", "details": "patients with tumors of high vs low RBM3 expression level; 210 serous samples; FIG. 19", "from_the_text": "Data was collected from a previously performed microarray study, based on a patient cohort of 285 patients diagnosed with epithelial ovarian cancer between 1992 and 2006. Institutional Review Board approval for patient consent had been obtained for all patients.\nThe median age of patients was 59 years (ranging from 18-79 years). The inventors decided to exclude data from 18 patients who received neoadjuvant therapy, as the inventors realized that this treatment could possibly influence RBM3 mRNA levels, and might thus lead to biased results. Further, data from 40 patients who didn't receive platinum based therapy were removed from the data set. Of these 227 samples, 210 came from patients with serous cancer, 16 with endometroid and 1 with adenocarcinoma. For statistical analysis only serous samples were considered. Pathology evaluation data existed for all patients, and recurrence free survival was evaluated for RBM3 high as well as RBM3 low mRNA content."}}, "data": [{"smiles": "N.N.[Cl][Pt][Cl]", "note": "[cisplatin]", "values": [{"measurement": "viability after cisplatin treatment", "setting": "[1]", "result": "increased viability"}, {"measurement": "viability after cisplatin treatment at low RBM3 protein expression", "setting": "A2780 cells", "result": "increased viability"}, {"measurement": "recurrence free survival", "setting": "[2]", "result": "significantly better recurrence free survival"}]}]}
